Reference: PubChem BioAssay (NCI)
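Test compounds were applied to cells in 96-well plates for 48 hours at 5 doses. GI50 is the concentration that inhibits growth by half. The concentration for full growth arrest is given as TGI.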

What was measured:
Assay in all cases: NCI anticancer screen, dose series, 48 h
[1] = system: M14 melanoma
[2] = system: HL-60(TB) leukemia
[3] = system: IGROV1 ovarian
[4] = system: HCT-116 colon
[5] = system: NCI-H23 lung
[6] = system: UACC-62 melanoma
[7] = system: NCI-H522 lung
[8] = system: SF-539 CNS
[9] = system: SK-MEL-28 melanoma
[10] = system: RXF 393 renal

SMILES	GI50 [1] [µM]	TGI [1] [µM]	GI50 [2] [µM]	TGI [2] [µM]	GI50 [3] [µM]	TGI [3] [µM]	GI50 [4] [µM]	TGI [4] [µM]	GI50 [5] [µM]	TGI [5] [µM]	GI50 [6] [µM]	TGI [6] [µM]	GI50 [7] [µM]	TGI [7] [µM]	GI50 [8] [µM]	TGI [8] [µM]	GI50 [9] [µM]	TGI [9] [µM]	GI50 [10] [nM]	TGI [10] [µM]
COc1ccc(/C(C)=C(\c2ccc(Cl)cc2)c2ccc(OCCN3CCCCCC3)cc2)cc1F	2.74	7.18	3.25	7.11	3.07	9.34	1.98	4.51	3.07	10.4	3.52	8.02	3.92	9.71	2.18	4.39	2.54	4.9	2550	5.17
C#Cc1cccc(NC(=O)C2CCCN(C(=O)CCl)C2)c1 (stereo not given)	29.9	> 82.5	> 82.5	> 82.5	14.3	33.3	45.9	> 82.5	21.8	> 82.5	> 82.5	> 82.5	14.7	32.7	> 82.5	> 82.5	> 82.5	> 82.5	> 82500	> 82.5
CCCCC[C@@H](C/C=C/CCC(=O)NC/C(=C/Cl)[C@H]1C(=O)C(C)(C)C(=O)[C@@H](C)[C@@]1(C)O)OC	16.9	31.2	19.1	40.6	16.4	31.3	14	27.4	17	33.9	15.6	29.1	13.9	28	19.7	35.2	18.1	33.8	17400	34.2
CCN1CCN(c2nc(NNC(=O)c3ccccc3)nc(N3CCN(C(c4ccccc4)c4ccccc4)CC3)n2)CC1	1.88	3.56	1.76	3.99	3.09	12.8	1.78	3.41	3.17	11.1	1.96	4.29	2.69	7.65	1.84	3.45	1.8	3.49	2560	7.57
CNCc1ccc(-c2[nH]c3cc(F)cc4c3c2CCNC4=O)cc1	16.6	32.7	20.9	41.3	20.8	> 72.2	13.1	38.6	20.8	> 56.7	15	29.8	19	39.4	15	30.6	15.6	32	12300	26.2
Nc1ncnc2c1nc(Cl)n2C1OC(CO)C(O)C1O (stereo not given)		> 100		3.97		> 100		> 100		> 100		> 100		> 95.3		> 94.7		> 100		4.29
COc1cc(/C=C2\C(=O)N(C)c3ccccc32)cc(OC)c1OC	16.8	46.9	7.26	> 100	7.52	53.4	11	30.7	21.2	73.1	12	32.1	11.2	37.8	19.7	> 100	16	44.4	206	5.75
C/C(CC(=O)Nc1cccc([N+](=O)[O-])c1)=N\NC(=O)C[n+]1ccccc1		> 100		> 100		> 100		> 100		> 100		> 100		> 100		> 100		> 100		> 100
COc1c(O)c2c3c(c1OC)-c1ccccc1CC3N(S(=O)(=O)c1ccc(C)cc1)CC2 (stereo not given)	1.81	> 50	1.18	7.46	2.13	> 50	1.9	> 50	1.17	2.71	2.41	> 50	1.28	3.55	1.15	3.16	2.51	> 50	1340	4.12
